This is an account of results in BindingDB's records for doi:10.7270/Q28S4S3D (n/a, 1997).

The target of this experiment is T1, E-selectin (Homo sapiens, UniProt P16581).
T1 sequence (P16581 whole entry): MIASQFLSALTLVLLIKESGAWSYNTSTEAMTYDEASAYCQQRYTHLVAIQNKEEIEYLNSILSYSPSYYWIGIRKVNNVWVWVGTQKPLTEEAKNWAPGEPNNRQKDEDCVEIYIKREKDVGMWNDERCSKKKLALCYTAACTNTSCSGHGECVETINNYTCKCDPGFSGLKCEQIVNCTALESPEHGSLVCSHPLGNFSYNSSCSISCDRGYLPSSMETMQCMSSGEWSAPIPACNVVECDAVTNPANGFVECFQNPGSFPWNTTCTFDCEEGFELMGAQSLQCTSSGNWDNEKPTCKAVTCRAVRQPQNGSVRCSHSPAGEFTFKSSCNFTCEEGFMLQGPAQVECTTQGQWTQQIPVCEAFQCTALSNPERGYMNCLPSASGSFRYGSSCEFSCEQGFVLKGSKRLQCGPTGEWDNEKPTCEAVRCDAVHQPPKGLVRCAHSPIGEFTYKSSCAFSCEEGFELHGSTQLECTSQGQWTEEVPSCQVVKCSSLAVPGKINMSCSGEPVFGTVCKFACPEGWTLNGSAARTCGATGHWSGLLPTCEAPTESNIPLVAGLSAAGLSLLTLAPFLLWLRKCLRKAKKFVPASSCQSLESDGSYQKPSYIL
Kind of experiment: Tested in vitro to inhibit cell adhesion of HL-60 cells to recombinant human soluble Selectin E.

pIC50: −log10 of the molar value.

For orientation: pIC50 means −log10 of the IC50, conventionally taken in molar units. As to `C=CC(=O)NCCCCCCO[C@@H]1O[C@@H](CO)[C@@H](O[C@@H]2O[C@@H](CO)[C@H](O)[C@H](O[C@]3(C(=O)O)C[C@@H](O)[C@@H](NC(C)=O)[C@H]([C@H](O)[C@H](O)CO)O3)[C@@H]2O)[C@H](O[C@@H]2O[C@@H](C)[C@@H](O)[C@H](O)[C@@H]2O)[C@@H]1NC(=O)c1ccc2ccccc2c1`, the pIC50 was 4.04. `CCO[C@@H]1O[C@@H](CO)[C@@H](O[C@@H]2O[C@@H](CO)[C@H](O)[C@H](O[C@]3(C(=O)O)C[C@@H](O)[C@@H](NC(C)=O)[C@H]([C@H](O)[C@H](O)CO)O3)[C@@H]2O)[C@H](O[C@@H]2O[C@@H](C)[C@@H](O)[C@H](O)[C@@H]2O)[C@@H]1NC(C)=O`: the pIC50 is 2.75.
